From publication PMC4475277 (Chemistry & biology, 2015)

Columns and labels:
bsNOS (WT) = molecular target: T1, bsNOS (WT) (Bacillus subtilis, UniProt O34453); conditions: read-out: WT - KS; imidazole displacement; ref Wang et al., 2004; cited from earlier work
T1 sequence (O34453 1-363): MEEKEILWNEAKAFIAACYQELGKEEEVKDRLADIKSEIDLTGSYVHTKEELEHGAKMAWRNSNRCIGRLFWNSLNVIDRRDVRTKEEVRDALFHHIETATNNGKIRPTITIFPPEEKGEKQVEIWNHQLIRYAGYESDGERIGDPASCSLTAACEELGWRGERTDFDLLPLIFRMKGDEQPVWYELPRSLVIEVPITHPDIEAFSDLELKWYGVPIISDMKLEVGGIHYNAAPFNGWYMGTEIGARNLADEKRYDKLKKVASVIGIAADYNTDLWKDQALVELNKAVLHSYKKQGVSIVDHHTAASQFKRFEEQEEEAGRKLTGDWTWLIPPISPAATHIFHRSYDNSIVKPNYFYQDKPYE

I218V bsNOS = I218V bsNOS (Bacillus subtilis, UniProt O34453, I218V); conditions: read-out: I218V - KS; imidazole displacement; ref Wang et al., 2004; cited from earlier work
[1] = tested on: bBiDomain (a chimera of bsNOS and redox partner YkuN); experiment: bBiDomain single time point bacterial NOS activity inhibition; format: biochemical, Bacillus subtilis; conditions: inhibitor 30 µM, NOHA 200 µM, 4 min at 35 °C

Sequence of I218V bsNOS (O34453 whole entry I218V): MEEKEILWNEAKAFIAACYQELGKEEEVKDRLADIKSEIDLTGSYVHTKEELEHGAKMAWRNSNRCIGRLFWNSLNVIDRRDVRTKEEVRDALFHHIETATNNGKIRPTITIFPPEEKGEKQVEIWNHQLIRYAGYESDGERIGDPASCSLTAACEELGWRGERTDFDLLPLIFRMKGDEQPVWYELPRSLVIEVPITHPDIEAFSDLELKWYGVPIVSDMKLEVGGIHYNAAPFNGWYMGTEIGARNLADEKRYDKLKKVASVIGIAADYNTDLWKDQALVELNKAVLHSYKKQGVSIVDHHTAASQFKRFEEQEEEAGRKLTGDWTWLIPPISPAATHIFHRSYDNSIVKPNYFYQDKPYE

Structure (SMILES) | Kd (bsNOS (WT)) [µM] | Kd (I218V bsNOS) [µM] | % nitrite (nitrite with inhibitor divided by nitrite without inhibitor) [1] [% nitrite]
N=C(N)NCCC[C@H](N)C(=O)O [L-Arg] | 4.8 ± 0.1 | 2 ± 0.2 | –
NC(=NCCC[C@H](N)C(=O)O)N[N+](=O)[O-] [L-NNA] | – | – | 40.9 ± 5.3
